Assay results: patent US20060293343A1, “Pyrimidine derivatives” (Asahi Kasei Pharma Corporation, priority 2005, published 2006)

Columns and labels:
PDE4 = system: T1, PDE4; test: Inhibitory action of PDE4 enzyme activity (PDE4 purified from U937 cells); format: biochemical; conditions: PDE4 fraction purified from U937 cells; [3H]-cAMP substrate; 30° C., 10 minutes
T1 construct: The PDE4 enzyme was purified from U937 cells that are the cells derived from lymphoma
Procedure: (1) Purification of PDE4 from U937 Cells
The PDE4 enzyme was purified from U937 cells that are the cells derived from lymphoma. U937 cells were suspended in buffer solution A (20 mM Tris-HCl(pH 6.5), 1 mM MgCl2, 0.1 mM EGTA, 3 mM 2-mercaptoethanol) containing protease. inhibitor cocktail (manufactured by Sigma Co.), and a soluble fraction was obtained by centrifugation after ultrasonic disintegration (100,000 G, 30 minutes, 4° C.). […] Each fraction was tested for the cAMP metabolized PDE activity to identify the fractions containing PDE4 enzyme.
(2) Measurement of Inhibitory Activity of PDE4 Enzyme Activity
A desired concentration of the test compound was allowed to react in a reaction mixture (100 μL; 40 mM Tris-HCl (pH 7.4), 5 MM MgCl2, 4 mM 2-mercaptoethanol, […] cAMP, 0.83 μCi [^3H]-cAMP and PDE4 fraction) at 30° C. for 10 minutes. The enzyme reaction was stopped by adding 25 μL of trichloroacetic acid to the reaction mixture. The reaction solution was charged on a neutral alumina column equilibrated with 0.1 M of 2-[[tris(hydroxylmethyl)methyl]-amino]-1-ethanesulfonic acid (TES) buffer (pH 8.0) and, after washing the column with a sufficient amount of 0.1 M TES buffer solution, the column was eluted with 2N NaOH. A 500 μL aliquot of the eluate containing [^3H]-5′AMP product was filled in a scintillation vial containing the scintillation cocktail (5 ml, manufactured by Perkin Elmer Co.) to measure radioactivity. […] The inhibitory action of PDE4 enzyme activity was expressed by IC50 (nM). Ex. No. in Table 8 denotes the example No.

[1] = system: TNF-α production in LPS-stimulated mouse mononuclear cells; test: Inhibitory action of TNF-α production using mouse mononuclear cells (in vitro); format: cell-based; conditions: mouse mononuclear cells from peripheral blood of C3H/He mouse; LPS 5 μg/mL, 21 hours; TNF-α ELISA; read-out: IC50 (nM), suppression action of TNF-α production
Procedure: Mouse mononuclear cells were isolated from the peripheral blood of C3H/He mouse (manufactured by Japan SLC Co., male), and were suspended in a culture medium (trade name RPMI 1640 manufactured by Gibco Co.) containing 10% bovine serum. The cells were seeded in a 96 well plate as 50,000 cells/well, the test compound was added at a desired concentration, and the plate was allowed to stand in an incubator containing 5% CO2 at .37° C. for 15 minutes. LPS was added thereafter at a final concentration of 5 μg/mL, and the plate was allowed to stand in the incubator for 21 hours.
The culture medium containing produced TNF-α was retrieved, and the amount of TNF-α was measured according to the protocol attached to mouse TNF-α ELISA kit (manufactured by R & D Systems Co.). […] The suppression action of TNF-α was expressed-by […] (nM). Ex. No. in Table 9 denotes the example No.

[2] = system: TNF-α production induced by LPS; test: Inhibitory action of TNF-α production (in vivo) induced by LPS using mouse; conditions: C3H/He mouse; orally administered 60 minutes before LPS 10 μg intraperitoneally; plasma TNF-α 90 minutes after LPS; read-out: ED50 (mg/kg), suppression action of TNF-α production
Procedure: C3H/He mouse (manufactured by Japan SLC Co., male) was used as a test animal. A desired concentration of the test sample was suspended in 0.5% methyl cellulose solution. The weight of the mouse was measured, and the test compound solution was orally administered at a dosage of 10 mL/kg while only 0.5% methyl cellulose was administered to the reference group. One group contained 5 to 7 mice. LPS was dissolved in physiological saline, and 10 μg was intraperitoneally administered to each mouse. The test compound was administered first, then LPS was administered 60 minutes thereafter. After 90 minutes, the blood was sampled from the large abdominal vein with the heparin, and a plasma was obtained by centrifugation. The content of TNF-α in the plasma was measured according to the protocol attached to TNF-α ELISA kit (manufactured by R & D System Co.). […] The suppression action of TNF-α production was represented by ED50 (mg/kg). Ex. No. in Table 11 denotes the example No.

IC50 (PDE4) [nM] | IC50 [1] [nM] | Structure (SMILES) | ED50 [2] [mg/kg]
356 | 1900 | C=CCc1c(C)nc(-c2cccs2)nc1Nc1ccc2cc(C(=O)O)ccc2c1 [Example 3] | –
1390 | 265 | CCc1c(C)nc(-c2cccs2)nc1Nc1ccc(C(=O)O)cc1 [Example 5] | –
2940 | 4930 | CCc1c(C)nc(-c2cccs2)nc1Nc1ccc(CC(=O)O)cc1 [Example 6] | –
409 | 267 | CCc1c(C)nc(-c2cccs2)nc1Nc1ccc2cc(C(=O)O)ccc2c1 [Example 7] | –
1170 | 790 | C=CCc1c(C)nc(-c2ccsc2)nc1Nc1ccc(C(=O)O)cc1 [Example 11] | 26
490 | 55 | CCCc1c(CC)nc(-c2ccsc2)nc1Nc1ccc(C(=O)O)cc1 [Example 15] | 13
191 | 289 | CCc1c(C)nc(-c2ccsc2)nc1Nc1ccc2cc(C(=O)O)ccc2c1 [Example 20] | –
633 | 2110 | C=CCc1c(C)nc(-c2ccoc2)nc1Nc1ccc2cc(C(=O)O)ccc2c1 [Example 23] | –
3250 | 865 | CCc1c(C)nc(-c2ccoc2)nc1Nc1ccc(C(=O)O)cc1 [Example 24] | –
312 | 219 | CCc1c(C)nc(-c2ccoc2)nc1Nc1ccc2cc(C(=O)O)ccc2c1 [Example 26] | –
– | 249 | CCc1c(C)nc(-c2ccc(C(=O)OC)s2)nc1Nc1ccc(C(=O)O)cc1 [Example 50] | –
– | 239 | C=CCc1c(CC)nc(-c2ccc(OC)s2)nc1Nc1ccc(C(=O)O)cc1 [Example 54] | –
– | 247 | C=CCc1c(CCC)nc(-c2ccsc2)nc1Nc1ccc(C(=O)O)cc1 [Example 68] | –
– | 211 | CCCc1nc(-c2ccsc2)nc(Nc2ccc3cc(C(=O)O)ccc3c2)c1CC [Example 73] | –
117 | – | CCc1c(C)nc(-c2ccc(SC)s2)nc1Nc1ccc2cc(C(=O)O)ccc2c1 [Example 79] | –
– | 73 | CCc1nc(-c2ccc(OC)s2)nc(Nc2ccc(C(=O)O)cc2)c1CC [Example 80] | –
90 | 57 | CCc1nc(-c2ccc(OC)s2)nc(Nc2ccc3cc(C(=O)O)ccc3c2)c1CC [Example 82] | –
76 | 29 | CCc1nc(-c2cccs2)nc(Nc2ccc3cc(C(=O)O)ccc3c2)c1CC [Example 85] | –
– | 67 | CCc1nc(-c2ccoc2)nc(Nc2ccc(C(=O)O)cc2)c1CC [Example 86] | 8
– | – | C=CCc1c(CC)nc(-c2ccoc2)nc1Nc1ccc(C(=O)O)cc1 [Example 103] | 37

IC50 (PDE4) [nM] | IC50 [1] [nM] | Structure (SMILES) | ED50 [2] [mg/kg]
116 | – | C=CCc1c(CC)nc(-c2ccoc2)nc1Nc1ccc2cc(C(=O)O)ccc2c1 [Example 105] | –
– | – | CCc1nc(-c2ccc(C)s2)nc(Nc2ccc(CC(=O)O)cc2)c1CC [Example 110] | 31
– | 58 | CCc1nc(-c2ccc(C)s2)nc(Nc2ccc3cc(C(=O)O)ccc3c2)c1CC [Example 111] | 15
– | 34 | CCc1c(C)nc(-c2cccs2)nc1Nc1ccc(CC(=O)Nc2ccccc2OC)cc1 [Example 113] | –
– | 10 | CCc1c(C)nc(-c2cccs2)nc1Nc1ccc(CC(=O)NO)cc1 [Example 116] | 12
– | – | CCc1nc(-c2ccc(SC)s2)nc(Nc2ccc(CC(=O)O)cc2)c1CC [Example 128] | 24
– | 85 | CCc1nc(-c2ccc(SC)s2)nc(Nc2ccc3cc(C(=O)O)ccc3c2)c1CC [Example 129] | –
845 | – | CCc1nc(-c2cc(C)c(C)s2)nc(Nc2ccc3cc(C(=O)O)ccc3c2)c1CC [Example 155] | –
– | 80 | CCc1nc(-c2cc(C)c(C)o2)nc(Nc2ccc3cc(C(=O)O)ccc3c2)c1CC [Example 157] | –
– | 57 | CCc1c(C)nc(-c2ccc(Br)s2)nc1Nc1ccc(CC(N)=O)cc1 [Example 181] | –
156 | – | C=CCc1c(CC)nc(-c2cc(OC)cs2)nc1Nc1ccc2cc(C(=O)O)ccc2c1 [Example 185] | –
– | 80 | CCc1nc(-c2ccco2)nc(Nc2ccc(C(=O)O)cc2)c1CC [Example 186] | –
59 | 46 | CCc1nc(-c2ccco2)nc(Nc2ccc3cc(C(=O)O)ccc3c2)c1CC [Example 188] | –
90 | 44 | C=CCc1c(CC)nc(-c2ccco2)nc1Nc1ccc2cc(C(=O)O)ccc2c1 [Example 191] | –
89 | – | CCc1c(C)nc(-c2ccc(Br)s2)nc1Nc1ccc(CC(=O)NO)cc1 [Example 192] | –
70 | 39 | CCc1c(C)nc(-c2cc(Br)cs2)nc1Nc1ccc(CC(=O)NO)cc1 [Example 193] | –
105 | – | CCc1ccc(-c2nc(CC)c(CC)c(Nc3ccc4cc(C(=O)O)ccc4c3)n2)s1 [Example 198] | –
133 | – | C=CCc1c(CC)nc(-c2ccc(CC)s2)nc1Nc1ccc2cc(C(=O)O)ccc2c1 [Example 201] | –
– | 86 | CCc1c(C)nc(-c2ccc(OC)s2)nc1Nc1ccc(CC(=O)NO)cc1 [Example 203] | –
– | – | CCc1c(C)nc(-c2ccc(C)s2)nc1Nc1ccc(CC(=O)O)cc1 [Example 205] | 21

IC50 (PDE4) [nM] | IC50 [1] [nM] | Structure (SMILES) | ED50 [2] [mg/kg]
192 | – | C=CCc1c(CC)nc(-c2ccc(C)s2)nc1Nc1ccc2cc(C(=O)O)ccc2c1 [Example 209] | –
– | 59 | CCc1nc(-c2ccc(Br)s2)nc(Nc2ccc(C(=O)O)cc2)c1CC [Example 220] | 41
– | 53 | CCc1nc(-c2ccc(Br)s2)nc(Nc2ccc(CC(=O)O)cc2)c1CC [Example 221] | 24
– | 48 | CCc1nc(-c2ccc(Cc3ccccc3)s2)nc(Nc2ccc3cc(C(=O)O)ccc3c2)c1CC [Example 234] | –
– | – | CCc1nc(-c2cc(C)c(Br)s2)nc(Nc2ccc(C(=O)O)cc2)c1CC [Example 238] | 20
– | – | CCc1nc(-c2cc(C)c(Br)s2)nc(Nc2ccc(CC(=O)O)cc2)c1CC [Example 239] | 22
– | – | C=CCc1c(C)nc(-c2ccc(Br)s2)nc1Nc1ccc(CC(=O)O)cc1 [Example 241] | 39
– | 504 | CCc1c(C)nc(-c2ccc(Cl)s2)nc1Nc1ccc(CC(=O)O)cc1 [Example 253] | 14
– | – | C=CCc1c(C)nc(-c2ccc(Cl)s2)nc1Nc1ccc(CC(=O)O)cc1 [Example 254] | 38
– | – | C=CCc1c(C)nc(-c2cc(C)c(Br)s2)nc1Nc1ccc(CC(=O)O)cc1 [Example 274] | 25
– | – | CCc1nc(-c2ccc(Cl)s2)nc(Nc2ccc(CC(=O)O)cc2)c1CC [Example 289] | 18
– | – | CCc1c(C)nc(-c2cc(C)c(I)s2)nc1Nc1ccc(CC(=O)O)cc1 [Example 292] | 25
– | – | CCc1nc(-c2cc(C)c(I)s2)nc(Nc2ccc(CC(=O)O)cc2)c1CC [Example 293] | 18
– | – | CCc1c(C)nc(-c2cccs2)nc1Nc1ccc(CC(=O)O)cc1F [Example 344] | 27
– | – | CCc1c(C)nc(-c2ccc(I)s2)nc1Nc1ccc(CC(=O)O)cc1F [Example 345] | 37
– | – | CCc1c(C)nc(-c2ccc(F)s2)nc1Nc1ccc(CC(=O)O)cc1 [Example 373] | 19
– | – | CCc1c(C)nc(-c2ccc(F)s2)nc1Nc1ccc(CC(=O)O)cc1F [Example 376] | 12
– | – | Cc1nc(-c2ccc(Cl)s2)nc(Nc2ccc(CC(=O)O)cc2)c1CO [Example 386] | 50
